Legend:
[1] = tested on: ZnPP generation in the hemorrhagic brain; test: ZnPP autofluorescence imaging on hemorrhagic brain slices; format: in vivo, rat
Method: (§1) The Laboratory Animal Care and Use Committee of the University of New Mexico approved all experimental protocols. The animals were used in compliance with the NIH Guide for Care and Use of Laboratory Animals. Male Sprague Dawley rats (Charles River Laboratories, Inc., Wilmington, Mass.) weighing 290 g to 320 g were anesthetized with isoflurane (5% for induction, 2% for maintenance) in N2O/O2 (70:30%) during surgical procedures, and the body temperature was maintained at 37.5° C.±0.5° C. using a heating pad. A small burr hole was made at 3.5 mm right of the bregma. 0.2 U collagenase (Sigma-Aldrich, St. Louis, Mo.) in 1 μl sterile saline was injected to 6.0 mm deep through the burr hole. The needle was removed at five minutes after collagenase injection to prevent backflow. A total of 49 rats were used in this study.
N,N,N′,N′-tetrakis-(2-Pyridylmethyl)ethylenediamine (TPEN, Sigma-Aldrich, St. Louis, Mo.) was dissolved in dimethyl sulfoxide (DMSO) to 25 mg/ml and then further diluted in physiological saline to a final concentration of 2.5 mg/ml. 10 mg/kg TPEN was intraperitoneal injected at one hour before collagenase injection. Saline with 10% DMSO was used as control.
N-methyl protoporphyrin IX (Santa Cruz Biotechnology, Inc., Dallas, Tex.), a ferrochelatase inhibitor was dissolved in DMSO to 200 mg/ml and then further diluted in physiological saline to a final concentration of 20 mg/ml. […]

[2] = tested on: ICH-induced brain damage; test: Brain damage by T2-weighted MRI after collagenase-induced ICH; format: in vivo, rat
Method: as §1
All multimodal magnetic resonance imaging (MRI) of the rat was performed by using a 4.7-Tesla MRI scanner (Bruker Biospin, Billerica, Mass.), which was equipped with a 40-cm bore, a 660 mT/m (rise time within 120 μs) gradient and shim systems (Bruker Biospin, Billerica, Mass.). The rats were anaesthetized with 2% isoflurane (Clipper Distributing Company, LLC, St. Joseph, Mo.) during MRI. At the same time respiration and heart rate were monitored. The body temperature of the rats was maintained at 37.0° C.±0.5° C. […]

[3] = tested on: cell death in the hemorrhagic brain; test: Brain cell death by TUNEL assay after collagenase-induced ICH; format: in vivo, rat
Method: as §1, with “study. […]” for “study.”
A standard terminal deoxynucleotidyl transferase—mediated dUTP nick-end labeling (TUNEL) procedure for frozen tissue sections was performed (Click-iT TUNEL Alexa Fluor 488 Imaging Assay kit (Thermo Fisher Scientific, Waltham, Mass.). Histological images were captured on a fluorescence microscope (Olympus IX71, Olympus Corp., Center Valley, Pa.) with a TRITC dichroic mirror.

[4] = biological target: T1, ferrochelatase (Homo sapiens, UniProt P22830); details: cited from earlier work
T1 sequence (P22830 55-423): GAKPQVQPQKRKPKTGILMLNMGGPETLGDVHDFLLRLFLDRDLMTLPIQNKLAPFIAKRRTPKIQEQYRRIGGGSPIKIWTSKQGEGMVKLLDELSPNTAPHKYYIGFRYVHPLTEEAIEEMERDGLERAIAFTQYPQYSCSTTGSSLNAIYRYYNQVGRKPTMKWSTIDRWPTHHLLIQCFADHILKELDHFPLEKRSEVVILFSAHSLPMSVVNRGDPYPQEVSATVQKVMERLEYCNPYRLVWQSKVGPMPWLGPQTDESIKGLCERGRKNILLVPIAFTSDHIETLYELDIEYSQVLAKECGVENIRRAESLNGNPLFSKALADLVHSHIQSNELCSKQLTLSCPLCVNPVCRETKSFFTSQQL

[5] = tested on: primary astrocytes; test: Cytotoxicity (Cytotox 96 LDH release) in primary astrocytes; format: cell-based; details: three-hour exposure, 5 and 7.5 μM
Method: Astrocytic death rate was measured using Cytotox 96 nonradioactive cytotoxicity assay kit (Promega, Madison, Wis.), which quantitatively measures lactate dehydrogenase (LDH) release from dead cells. Astroytes (5×10^3 cells/well) were seeded into 96-well microtiter plates. Following three hours normoxia or hypoxia treatment, 50 μl of the reconstituted substrate mixture was added to each well of the plate. Thirty minutes later, 50 μl of the stop solution was added to each well, and the absorbance was measured at 490 nm in a microplate reader (Bio-Rad 3350, Bio-Rad Laboratories, Inc. Hercules, Calif.). Triton-X 100-treated cells were used as 100% cell death control. The cell death rate was calculated by using the formula: Cell death rate=(Experimental absorbance value−culture medium absorbance value)/(Triton-X 100-treated absorbance value−culture medium absorbance value).

[6] = tested on: primary neurons; test: Cytotoxicity (Cytotox 96 LDH release) in primary neurons; format: cell-based; details: for neuron toxicity under hypoxia / cell death in normoxia: three-hour exposure; for neuron toxicity under hypoxia: 2.5-7.5 μM; for cell death in normoxia: any concentration tested
[7] = tested on: brain of permanent MCAO rat model; test: ZnPP injection into brain parenchyma of MCAO or normal rats, T2-weighted MRI; format: in vivo; details: MCAO rats, ZnPP 10 μg/kg into brain parenchyma of ischemic side
Method: All multimodal magnetic resonance imaging (MRI) of the rat was performed by using a 4.7-Tesla MRI scanner (Bruker Biospin, Billerica, Mass.), which was equipped with a 40-cm bore, a 660 mT/m (rise time within 120 μs) gradient and shim systems (Bruker Biospin, Billerica, Mass.). The rats were anaesthetized with 2% isoflurane (Clipper Distributing Company, LLC, St. Joseph, Mo.) during MRI. At the same time respiration and heart rate were monitored. The body temperature of the rats was maintained at 37.0° C.±0.5° C. The success of the intracerebral hemorrhage model and brain damage was estimated by T2-weighted images. T2-weighted images were acquired with a fast spin-echo sequence (rapid acquisition with relaxation enhancement (RARE)) (Repetition Time (TR)/Echo Time (TE)=5,000 ms/56 ms, Field of View (FOV)=4 cm×4 cm, slice thickness=1 mm, inter-slice distance=1.1 mm, number of slices=12, matrix=256×256, number of average=3).
Middle cerebral artery occlusion (MCAO) surgery was used to induce focal cerebral ischemia through intraluminal filament methods as described previously (Zhao et al., 2014, Stroke 45:1139-1147). The animals underwent right MCAO for 24 hours. ZnPP (10 μg/kg) in […] or 5 μl saline was injected to 6.0 mm deep at 3.5 mm right of the bregma through a burr hole on normal or MCAO rat, 10 minutes after MCAO onset.

[8] = biological target: T2, heme oxygenase-1 (HO-1) (Homo sapiens, UniProt P09601); details: levels as low as; cited from earlier work
T2 sequence (P09601 1-288): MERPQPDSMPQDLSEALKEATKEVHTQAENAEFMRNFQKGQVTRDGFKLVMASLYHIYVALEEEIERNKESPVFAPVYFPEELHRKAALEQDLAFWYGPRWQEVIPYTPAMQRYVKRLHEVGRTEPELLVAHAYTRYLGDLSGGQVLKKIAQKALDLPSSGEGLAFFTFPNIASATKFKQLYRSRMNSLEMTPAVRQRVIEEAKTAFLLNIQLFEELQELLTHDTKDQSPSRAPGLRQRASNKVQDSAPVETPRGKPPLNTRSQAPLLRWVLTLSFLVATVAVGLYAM

[9] = tested on: ZnPP in hemorrhagic hemisphere tissue; test: Fluorescence spectrophotometry of ZnPP in brain tissue extract; format: in vivo, rat; details: TPEN pretreatment
Method: as §1, with “study. […]” for “study.”
The animals were euthanized at 24 hours after collagenase injection. […] After centrifugation at 13,000×g, the fluorescence intensity (excitation=416 nm, emission=588 nm) was determined using a SpectraMax M2 Multi-Mode Microplate Readers (Molecular Devices LLC, Sunnyvale, Calif.) as previously described (Nakamura et al., 2011. J Control Release 155(3):367-375. After being treated with heparin as an anti-coagulant, 50 μl blood was diluted in ethanol. Followed by centrifugation, the fluorescence intensity of ZnPP in the ethanol extract supernatant was measured.

[10] = tested on: whole rat blood; test: ZnPP generation in whole blood with zinc under hypoxia; details: 100 μM zinc, hypoxia three hours, P=0.00096
Method: The animals were euthanized at 24 hours after collagenase injection. The brains were harvested and cut into 2-mm thick coronal slice. The tissue with visible blood at the hemorrhagic hemisphere of each slice was collected. And the tissue at the corresponding location at the contralateral hemisphere was also collected. The tissue was homogenized on ice in ethanol. After centrifugation at 13,000×g, the fluorescence intensity (excitation=416 nm, emission=588 nm) was determined using a SpectraMax M2 Multi-Mode Microplate Readers (Molecular Devices LLC, Sunnyvale, Calif.) as previously described (Nakamura et al., 2011. J Control Release 155(3):367-375. After being treated with heparin as an anti-coagulant, 50 μl blood was diluted in ethanol. Followed by centrifugation, the fluorescence intensity of ZnPP in the ethanol extract supernatant was measured.
Blood was drawn from normal Sprague Dawley rats. Blood was subjected to hypoxia by incubating in a humidified airtight chamber (Billups-Rothenberg, Inc., San Diego, Calif.) equipped with an air lock and flushed with 95% N2/5% CO2 for 15 minutes. Then the chamber was scaled and kept at 37° C. for three hours.

[11] = tested on: labile zinc accumulation in brain tissue after hemorrhagic stroke; test: Labile zinc staining (Fluozin-3) on brain slices after collagenase-induced ICH; format: in vivo, rat; details: rats pretreated with 10 mg/kg i.p. one hour before collagenase injection; versus saline control
Method: as §1, with “study. […]” for “study.”
To detect labile zinc in brain tissue, cryosections 16 μm thick were stained with the zinc-specific membrane-permeable fluorescent dyes Fluozin-3 (Invitrogen, Thermo Fisher Scientific, Carlsbad, Calif.). […] After washing in saline, images were acquired by a fluorescence microscope (Olympus IX71, Olympus Corp., Center Valley, Pa.) with a GFP dichroic mirror.

Molecule: N-methyl protoporphyrin IX [N-methyl PP]
- reduction of ZnPP fluorescence in brain tissue versus no treatment ([1]; N-methyl PP 100 mg/kg i.p. one hour before ICH induction, P=0.0037): about two thirds
- brain damage in ICH by T2-weighted MRI ([2]; N-methyl PP pretreatment one hour before collagenase-induced ICH, P=0.043): significantly reduced
- number of TUNEL positive cells relative to saline treated control group ([3]; N-methyl PP 100 mg/kg i.p. pretreatment, P=0.000039): 14%
- inhibition of ferrochelatase [4]: potently inhibited

Molecule: hemin
- astrocyte toxicity in hypoxia [5]: did not
- neuron toxicity under hypoxia ([6]; hypoxia): significant dose-dependent increases
- cell death in normoxia [6]: Neither ZnPP nor hemin induced significant cell death

Molecule: C=CC1=C(C)c2cc3[n-]c(cc4nc(cc5[n-]c(cc1n2)c(C)c5C=C)C(C)=C4CCC(=O)O)c(CCC(=O)O)c3C.[Zn+2] [ZnPP, zinc protoporphyrin]
- brain damage area on T2-weighted MRI after ZnPP injection [7]: significantly increased
- astrocyte toxicity in hypoxia [5]: dose dependent increase in toxicity
- neuron toxicity under hypoxia ([6]; hypoxia): significant dose-dependent increases
- toxicity in hypoxia compared with hemin (neurons) ([6]; hypoxia, 2.5 μM P=0.0092, 5 μM P=0.0046, 7.5 μM P=0.0059): greater than that of hemin
- cell death in normoxia [6]: Neither ZnPP nor hemin induced significant cell death
- level significantly decreasing HO-1 activity [8]: 0.15

Molecule: c1ccc(CN(CCN(Cc2ccccn2)Cc2ccccn2)Cc2ccccn2)nc1 [TPEN, N,N,N′,N′-tetrakis-(2-Pyridylmethyl)ethylenediamine]
- ZnPP formed at the hemorrhagic hemisphere (fluorescence intensity at 588 nm) [9]: significantly reduced
- zinc-induced ZnPP generation in hypoxic blood [10]: decreased
- ZnPP fluorescence on brain slices ([1]; TPEN pretreatment, 24 hours after collagenase injection, P=0.0034): significantly decreased
- hyperintense lesion on T2-weighted MRI (brain damage) ([2]; TPEN pretreatment, 24 hours after collagenase-induced ICH): significantly reduced
- TUNEL signal (cell death) at edge of hemorrhagic area ([3]; TPEN 10 mg/kg i.p. one hour before collagenase injection): markedly decreased
- zinc fluorescence signal (Fluozin-3) around hemorrhagic area [11]: significantly reduced
